Source: US12036267B2 (BICT S.R.L., priority 2017, dated 2024)

Columns and labels:
S. aureus = test: Antimicrobial activity (MIC / FIC index) of extracts and nisin; type: cell-based; conditions: nisin alone
Method: (§1) The antimicrobial activity of the composition according to the invention has been assessed in relation to gram-positive and gram-negative bacteria, as well as fungi and yeast, by means of in vitro susceptibility testing with the antimicrobial dilution method (CLSI protocols—Clinical and Laboratory Standards Institute), as a result of which the MIC (Minimum Inhibitory Concentration) was determined for each of the microorganisms in question.
(§2) For all the tests carried out, a positive control for the antimicrobial activity was carried out by using fluconazole (for fungi and yeasts) and ceftriaxone (for bacterial strains) and a negative control (no compounds) in which the correct microbial growth was assessed.
(§3) The FIC index is determined using the following formula:
(§4) FIC Index>1=> no synergistic effect
(§5) In this example, the antimicrobial activity of the individual natural extracts was first assessed as follows:
(§6) The antimicrobial activity of the individual natural extracts was then assessed in association with the composition according to the invention in Example 8:
(§7) The interaction of the composition in Example 8 with other natural antimicrobial peptides, such as nisin, was assessed.
(§8) After determining the antimicrobial activity of nisin alone, the antimicrobial activity of nisin was assessed in association with the composition according to the invention: […]

E. coli = test: as above; type: cell-based; conditions: nisin alone
Method: as §1, §2, §3, §4, §5, §6, §7, §8

Q: For nisin, which MIC (S. aureus) is on record?
A: S. aureus - 17 UI/ml

Q: What about the MIC (E. coli) of the same substance?
A: E. coli - 18750 UI/ml
